For five compounds, IC50 results are on record in PubChem BioAssay AID1963840 (Molecular Pharmacology Branch, DTP, NCI, 2024).

Usually IC50 stands for the concentration that inhibits the measured activity by half.
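Note: spheroids exposed to compounds for seven days.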

One assay concerns 695427-040-R-J1-PDC complex spheroid viability. Put plainly: Anticancer human tumor 695427-040-R-J1-PDC patient-derived colon adenocarcinoma cell line growth inhibition [POLQ]. The note with it: curve of first compound; second compound 0.0316 µM. In short, it runs like this: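 Three-cell-type spheroids modelling solid tumor plus stroma served as the readout system; POL inhibitors were tested individually and in combination, concentration ranges set by clinical Cmax where known.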
Consider `C=CC(=O)N1CCN(c2nc(=O)n(-c3c(C)ccnc3C(C)C)c3nc(-c4c(O)cccc4F)c(F)cc23)C(C)C1` (stereo unspecified) + Nc1ccc(C#CCN(C(=O)Cc2ncc(C(F)(F)F)cc2C(F)(F)F)c2ccc(F)cc2)nn1, for which the IC50 was greater than 10 µM.

On to `CC(C)n1c(=O)n(C)c2cnc3cc(F)c(-c4ccc(OCCCN5CCCCC5)nc4)cc3c21` + Nc1ccc(C#CCN(C(=O)Cc2ncc(C(F)(F)F)cc2C(F)(F)F)c2ccc(F)cc2)nn1, for which the IC50 was greater than 10 µM.

Turning to `CCc1cc2c(N3CCc4c(cc(Cn5ccnc5)cc4-c4cn(C)nc4C(F)(F)F)C3=O)cc(C)nc2c(OC)n1` + Nc1ccc(C#CCN(C(=O)Cc2ncc(C(F)(F)F)cc2C(F)(F)F)c2ccc(F)cc2)nn1, the IC50 was greater than 10 µM.

As to `CCc1cc2c(N3CCc4c(cc(Cn5ccnc5)cc4-c4cn(C)nc4C(F)(F)F)C3=O)ccnc2c(OC)n1` + Nc1ccc(C#CCN(C(=O)Cc2ncc(C(F)(F)F)cc2C(F)(F)F)c2ccc(F)cc2)nn1, the half-maximal inhibitory concentration (IC50) was greater than 10 µM.

For `COc1cc2cc(C(=O)CCC(=O)O)sc2cc1OC` + Nc1ccc(C#CCN(C(=O)Cc2ncc(C(F)(F)F)cc2C(F)(F)F)c2ccc(F)cc2)nn1, the IC50 was greater than 10 µM.

The same assay, now with this note: curve of first compound; second compound 0.1 µM.
In the case of `C=CC(=O)N1CCN(c2nc(=O)n(-c3c(C)ccnc3C(C)C)c3nc(-c4c(O)cccc4F)c(F)cc23)C(C)C1` (stereo unspecified) + Nc1ccc(C#CCN(C(=O)Cc2ncc(C(F)(F)F)cc2C(F)(F)F)c2ccc(F)cc2)nn1, the half-maximal inhibitory concentration (IC50) is greater than 10 µM.

As to `CC(C)n1c(=O)n(C)c2cnc3cc(F)c(-c4ccc(OCCCN5CCCCC5)nc4)cc3c21` + Nc1ccc(C#CCN(C(=O)Cc2ncc(C(F)(F)F)cc2C(F)(F)F)c2ccc(F)cc2)nn1, the IC50 was greater than 10 µM.

In the case of `CCc1cc2c(N3CCc4c(cc(Cn5ccnc5)cc4-c4cn(C)nc4C(F)(F)F)C3=O)cc(C)nc2c(OC)n1` + Nc1ccc(C#CCN(C(=O)Cc2ncc(C(F)(F)F)cc2C(F)(F)F)c2ccc(F)cc2)nn1, the half-inhibitory concentration (IC50) is greater than 10 µM.

For the compound `CCc1cc2c(N3CCc4c(cc(Cn5ccnc5)cc4-c4cn(C)nc4C(F)(F)F)C3=O)ccnc2c(OC)n1` + Nc1ccc(C#CCN(C(=O)Cc2ncc(C(F)(F)F)cc2C(F)(F)F)c2ccc(F)cc2)nn1, the IC50 was greater than 10 µM.

`COc1cc2cc(C(=O)CCC(=O)O)sc2cc1OC` + Nc1ccc(C#CCN(C(=O)Cc2ncc(C(F)(F)F)cc2C(F)(F)F)c2ccc(F)cc2)nn1: the IC50 was greater than 10 µM.

Staying with this assay, now noted: curve of first compound; second compound 0.316 µM.
As to `C=CC(=O)N1CCN(c2nc(=O)n(-c3c(C)ccnc3C(C)C)c3nc(-c4c(O)cccc4F)c(F)cc23)C(C)C1` (stereo unspecified) + Nc1ccc(C#CCN(C(=O)Cc2ncc(C(F)(F)F)cc2C(F)(F)F)c2ccc(F)cc2)nn1, the IC50 was greater than 10 µM.

Regarding `CC(C)n1c(=O)n(C)c2cnc3cc(F)c(-c4ccc(OCCCN5CCCCC5)nc4)cc3c21` + Nc1ccc(C#CCN(C(=O)Cc2ncc(C(F)(F)F)cc2C(F)(F)F)c2ccc(F)cc2)nn1, the concentration for half-maximal inhibition (IC50) is greater than 10 µM.

Regarding `CCc1cc2c(N3CCc4c(cc(Cn5ccnc5)cc4-c4cn(C)nc4C(F)(F)F)C3=O)cc(C)nc2c(OC)n1` + Nc1ccc(C#CCN(C(=O)Cc2ncc(C(F)(F)F)cc2C(F)(F)F)c2ccc(F)cc2)nn1, the IC50 was greater than 10 µM.

`CCc1cc2c(N3CCc4c(cc(Cn5ccnc5)cc4-c4cn(C)nc4C(F)(F)F)C3=O)ccnc2c(OC)n1` + Nc1ccc(C#CCN(C(=O)Cc2ncc(C(F)(F)F)cc2C(F)(F)F)c2ccc(F)cc2)nn1: the IC50 is greater than 10 µM.

On to `COc1cc2cc(C(=O)CCC(=O)O)sc2cc1OC` + Nc1ccc(C#CCN(C(=O)Cc2ncc(C(F)(F)F)cc2C(F)(F)F)c2ccc(F)cc2)nn1, for which the IC50 is greater than 10 µM.

Still in this assay, the particulars now being: curve of first compound; second compound 1 µM.
In the case of `C=CC(=O)N1CCN(c2nc(=O)n(-c3c(C)ccnc3C(C)C)c3nc(-c4c(O)cccc4F)c(F)cc23)C(C)C1` (stereo unspecified) + Nc1ccc(C#CCN(C(=O)Cc2ncc(C(F)(F)F)cc2C(F)(F)F)c2ccc(F)cc2)nn1, the half-inhibitory concentration (IC50) is greater than 10 µM.

Consider `CC(C)n1c(=O)n(C)c2cnc3cc(F)c(-c4ccc(OCCCN5CCCCC5)nc4)cc3c21` + Nc1ccc(C#CCN(C(=O)Cc2ncc(C(F)(F)F)cc2C(F)(F)F)c2ccc(F)cc2)nn1, for which the half-maximal inhibitory concentration (IC50) is greater than 10 µM.

For `CCc1cc2c(N3CCc4c(cc(Cn5ccnc5)cc4-c4cn(C)nc4C(F)(F)F)C3=O)cc(C)nc2c(OC)n1` + Nc1ccc(C#CCN(C(=O)Cc2ncc(C(F)(F)F)cc2C(F)(F)F)c2ccc(F)cc2)nn1, the concentration for half-maximal inhibition (IC50) is greater than 10 µM.

As to `CCc1cc2c(N3CCc4c(cc(Cn5ccnc5)cc4-c4cn(C)nc4C(F)(F)F)C3=O)ccnc2c(OC)n1` + Nc1ccc(C#CCN(C(=O)Cc2ncc(C(F)(F)F)cc2C(F)(F)F)c2ccc(F)cc2)nn1, the IC50 was greater than 10 µM.

With `COc1cc2cc(C(=O)CCC(=O)O)sc2cc1OC` + Nc1ccc(C#CCN(C(=O)Cc2ncc(C(F)(F)F)cc2C(F)(F)F)c2ccc(F)cc2)nn1, the concentration for half-maximal inhibition (IC50) was greater than 10 µM.

The same assay, now with this note: curve of first compound; second compound 3.16 µM.
As for `C=CC(=O)N1CCN(c2nc(=O)n(-c3c(C)ccnc3C(C)C)c3nc(-c4c(O)cccc4F)c(F)cc23)C(C)C1` (stereo unspecified) + Nc1ccc(C#CCN(C(=O)Cc2ncc(C(F)(F)F)cc2C(F)(F)F)c2ccc(F)cc2)nn1, the IC50 is greater than 10 µM.

`CC(C)n1c(=O)n(C)c2cnc3cc(F)c(-c4ccc(OCCCN5CCCCC5)nc4)cc3c21` + Nc1ccc(C#CCN(C(=O)Cc2ncc(C(F)(F)F)cc2C(F)(F)F)c2ccc(F)cc2)nn1: the concentration for half-maximal inhibition (IC50) is greater than 10 µM.

Consider `CCc1cc2c(N3CCc4c(cc(Cn5ccnc5)cc4-c4cn(C)nc4C(F)(F)F)C3=O)cc(C)nc2c(OC)n1` + Nc1ccc(C#CCN(C(=O)Cc2ncc(C(F)(F)F)cc2C(F)(F)F)c2ccc(F)cc2)nn1, for which the IC50 is greater than 10 µM.

Turning to `CCc1cc2c(N3CCc4c(cc(Cn5ccnc5)cc4-c4cn(C)nc4C(F)(F)F)C3=O)ccnc2c(OC)n1` + Nc1ccc(C#CCN(C(=O)Cc2ncc(C(F)(F)F)cc2C(F)(F)F)c2ccc(F)cc2)nn1, the IC50 is greater than 10 µM.

In the case of `COc1cc2cc(C(=O)CCC(=O)O)sc2cc1OC` + Nc1ccc(C#CCN(C(=O)Cc2ncc(C(F)(F)F)cc2C(F)(F)F)c2ccc(F)cc2)nn1, the IC50 is greater than 10 µM.

Staying with this assay, now noted: curve of first compound; second compound 10 µM.
As to `C=CC(=O)N1CCN(c2nc(=O)n(-c3c(C)ccnc3C(C)C)c3nc(-c4c(O)cccc4F)c(F)cc23)C(C)C1` (stereo unspecified) + Nc1ccc(C#CCN(C(=O)Cc2ncc(C(F)(F)F)cc2C(F)(F)F)c2ccc(F)cc2)nn1, the IC50 was greater than 10 µM.
